Test results from patent publication US7629457B2, “Method for producing cytosine nucleoside compounds” (priority 2001, dated 2009).

Assays:
cytidine deaminase (cdd) = target: T1, cytidine deaminase (cdd) (Escherichia coli, UniProt P0ABF6); test: cdd (cytidine deaminase) residual activity of MT-10905 cell mass suspension after processing with organic solvent; assay type: biochemical; details: for cdd Activity: organic solvent 50%
T1 construct: endogenous in cells; host or cells: E. coli DH5alpha transformed with pUC-PNP73 (strain MT-10905), whole cell mass suspension
Procedure: To the cell mass suspension of the strain MT-10905 obtained in Reference Example 2 was added a certain amount of methanol so as to attain any one of the methanol concentrations listed in Table 2, and then the suspension was kept at 30° C. for 1 hour. Cytidine deaminase will be expressed as cdd hereafter. The activity of cdd was analyzed after the cell mass suspension was added to 1.0 ml of the reaction solution consisting of 100 mM tris hydrochloride buffer (pH 8.0) and 20 mM cytidine, and then treated at 50° C. for 2 hours.
The cell mass suspension described above was kept at 30° C. for 1 hour without addition of methanol, and then the activity of cdd of the suspension was set at 100% of relative value.
(§1) The cell mass suspension heat treated for 20 hours in Example 3 was processed with methanol in the same way as in Example 1. The individual activities of the cell mass suspension that was heat treated for 20 hours in Example 3 were set at 100% and the remaining activities were expressed with relative values. The results shown in Table 5 reveal that the activity of PNP was reduced minimally, but the activities of both cod and cdd were eliminated nearly completely.

cytosine deaminase (cod) = test: cod (cytosine deaminase) residual activity of heat treated MT-10905 cell mass suspension after processing with methanol; assay type: biochemical, Escherichia coli; details: cells heat treated 60° C. 20 hours = 100%
Procedure: The cell mass suspension of the strain MT-10905 obtained in Reference Example 2 was kept at 60° C. Cytosine deaminase will be expressed as cod hereafter. The activity of cod was analyzed after the cell mass suspension was added to 100 mM tris hydrochloride buffer (pH 8.0) and 20 mM cytosine, and then treated at 50° C. for 2 hours. The cod activity of the cell mass suspension that was not heat treated was set at 100% and the remaining activities were expressed with relative values. The results shown in Table 4 reveal that the activity of PNP was reduced minimally, but the activity of cod was eliminated nearly completely.
as §1

[1] = target: T2, PNP (purine nucleoside phosphorylase) (Escherichia coli, UniProt P0ABP8); test: PNP residual activity of MT-10905 cell mass suspension after processing with organic solvent; assay type: biochemical; details: for PNP Activity: organic solvent 50%
T2 construct: expressed in transfected cells; host or cells: E. coli DH5alpha transformed with plasmid pUC-PNP73 (strain MT-10905), whole cell mass suspension
Procedure: The activity of PNP was analyzed after the cell mass suspension was added to 1.0 ml of the reaction solution consisting of 20 mM 2′-deoxyribose-1-phosphate di(monocyclohexylammonium) salt (produced by SIGMA), 5.4 mM adenine (produced by Wako Pure Chemicals, guaranteed grade) and 100 mM tris hydrochloride buffer (pH 8.0), and then treated at 50° C. or 15 minutes. The above reaction was conducted using such an amount of the cell mass as to produce not more than 2 mM deoxyadenosine. The cell mass suspension described above was kept at 30° C. for 1 hour without addition of methanol, and then the activity of PNP of the suspension was set at 100% of relative value. The results shown in Table 2 reveal that the activity of PNP was reduced minimally, but the activity of cdd was eliminated nearly completely.
as §1

[2] = MeOH 10%, 30° C. 1 hour, no methanol = 100%
[3] = MeOH 10%, cells heat treated 60° C. 20 hours = 100%
[4] = MeOH 25%, 30° C. 1 hour, no methanol = 100%
[5] = MeOH 25%, cells heat treated 60° C. 20 hours = 100%
[6] = MeOH 50%, 30° C. 1 hour, no methanol = 100%
[7] = MeOH 50%, cells heat treated 60° C. 20 hours = 100%
[8] = MeOH 70%, 30° C. 1 hour, no methanol = 100%
[9] = MeOH 70%, cells heat treated 60° C. 20 hours = 100%
[10] = MeOH 90%, 30° C. 1 hour, no methanol = 100%
[11] = MeOH 90%, cells heat treated 60° C. 20 hours = 100%

T2 sequence (P0ABP8 2-239): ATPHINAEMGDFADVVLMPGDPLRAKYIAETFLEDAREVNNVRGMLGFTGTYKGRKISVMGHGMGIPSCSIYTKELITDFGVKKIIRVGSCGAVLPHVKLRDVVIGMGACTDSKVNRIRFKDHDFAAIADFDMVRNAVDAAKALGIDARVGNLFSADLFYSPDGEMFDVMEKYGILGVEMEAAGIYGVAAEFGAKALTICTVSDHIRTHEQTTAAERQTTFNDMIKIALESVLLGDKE
T1 sequence (P0ABF6 whole entry): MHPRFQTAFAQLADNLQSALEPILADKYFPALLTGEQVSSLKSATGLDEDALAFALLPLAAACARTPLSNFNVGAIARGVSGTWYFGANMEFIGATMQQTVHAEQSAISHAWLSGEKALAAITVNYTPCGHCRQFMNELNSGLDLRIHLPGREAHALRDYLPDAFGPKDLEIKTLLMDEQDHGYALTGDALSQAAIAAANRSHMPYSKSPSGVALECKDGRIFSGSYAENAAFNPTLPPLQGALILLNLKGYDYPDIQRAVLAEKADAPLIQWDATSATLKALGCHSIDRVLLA

CO [MeOH, methanol]
cdd Residual Activity (%) (cytidine deaminase (cdd); [2]): 80% | cdd Residual Activity (%) (cytidine deaminase (cdd); [3]): 80% | cdd Residual Activity (%) (cytidine deaminase (cdd); [4]): 50% | cdd Residual Activity (%) (cytidine deaminase (cdd); [5]): 50% | cdd Residual Activity (%) (cytidine deaminase (cdd); [6]): 10% | cdd Residual Activity (%) (cytidine deaminase (cdd); [7]): 10% | cdd Residual Activity (%) (cytidine deaminase (cdd); [8]): 0.5% | cdd Residual Activity (%) (cytidine deaminase (cdd); [9]): 0.5% | cdd Residual Activity (%) (cytidine deaminase (cdd); [10]): 0.1% | cdd Residual Activity (%) (cytidine deaminase (cdd); [11]): 0.1% | cod Residual Activity (%) (cytosine deaminase (cod); MeOH 10%): 90% | cod Residual Activity (%) (cytosine deaminase (cod); MeOH 25%): 80% | cod Residual Activity (%) (cytosine deaminase (cod); MeOH 50%): 50% | cod Residual Activity (%) (cytosine deaminase (cod); MeOH 70%): 30% | cod Residual Activity (%) (cytosine deaminase (cod); MeOH 90%): 10% | PNP Residual Activity (%) [1, 2]: 100% | PNP Residual Activity (%) [1, 3]: 100% | PNP Residual Activity (%) [1, 4]: 99% | PNP Residual Activity (%) [1, 5]: 98% | PNP Residual Activity (%) [1, 6]: 98% | PNP Residual Activity (%) [1, 7]: 96% | PNP Residual Activity (%) [1, 8]: 97% | PNP Residual Activity (%) [1, 9]: 96% | PNP Residual Activity (%) [1, 10]: 97% | PNP Residual Activity (%) [1, 11]: 96%

CN1CCN(C)C1=O [N,N-Dimethylimidazolidinone]
cdd Activity (cytidine deaminase (cdd); 30° C. 1 hour): 4% | PNP Activity ([1]; 30° C. 1 hour): 95%

C[S+](C)[O-] [Dimethyl Sulfoxide]
cdd Activity (cytidine deaminase (cdd); 30° C. 1 hour): 4% | PNP Activity ([1]; 30° C. 1 hour): 96%

CN(C)C=O [N,N-Dimethylformamide]
cdd Activity (cytidine deaminase (cdd); 30° C. 1 hour): 5% | PNP Activity ([1]; 30° C. 1 hour): 97%
